According to patent US5043332A, “Novel 11β-substituted -19-nor-steriods” (priority 1981, dated 1991):

Key:
[1] = target: T1, Progestogen receptor of the uterus of rabbits (Oryctolagus cuniculus, UniProt P06186); experiment: Progestogen receptor binding (displacement of tritiated product R); set-up: species or system rabbit; settings: for affinity for progestogen receptors (in words): conclusion; for relative affinity of tieing (ARL), Progestogen: second table
T1 construct: The uterus was removed, weighed and homogenized at 0° C; from tissue; host or cells: rabbit uterus, 105,000 g supernatant (estradiol-primed immature rabbits)
T1 sequence (P06186 1-930): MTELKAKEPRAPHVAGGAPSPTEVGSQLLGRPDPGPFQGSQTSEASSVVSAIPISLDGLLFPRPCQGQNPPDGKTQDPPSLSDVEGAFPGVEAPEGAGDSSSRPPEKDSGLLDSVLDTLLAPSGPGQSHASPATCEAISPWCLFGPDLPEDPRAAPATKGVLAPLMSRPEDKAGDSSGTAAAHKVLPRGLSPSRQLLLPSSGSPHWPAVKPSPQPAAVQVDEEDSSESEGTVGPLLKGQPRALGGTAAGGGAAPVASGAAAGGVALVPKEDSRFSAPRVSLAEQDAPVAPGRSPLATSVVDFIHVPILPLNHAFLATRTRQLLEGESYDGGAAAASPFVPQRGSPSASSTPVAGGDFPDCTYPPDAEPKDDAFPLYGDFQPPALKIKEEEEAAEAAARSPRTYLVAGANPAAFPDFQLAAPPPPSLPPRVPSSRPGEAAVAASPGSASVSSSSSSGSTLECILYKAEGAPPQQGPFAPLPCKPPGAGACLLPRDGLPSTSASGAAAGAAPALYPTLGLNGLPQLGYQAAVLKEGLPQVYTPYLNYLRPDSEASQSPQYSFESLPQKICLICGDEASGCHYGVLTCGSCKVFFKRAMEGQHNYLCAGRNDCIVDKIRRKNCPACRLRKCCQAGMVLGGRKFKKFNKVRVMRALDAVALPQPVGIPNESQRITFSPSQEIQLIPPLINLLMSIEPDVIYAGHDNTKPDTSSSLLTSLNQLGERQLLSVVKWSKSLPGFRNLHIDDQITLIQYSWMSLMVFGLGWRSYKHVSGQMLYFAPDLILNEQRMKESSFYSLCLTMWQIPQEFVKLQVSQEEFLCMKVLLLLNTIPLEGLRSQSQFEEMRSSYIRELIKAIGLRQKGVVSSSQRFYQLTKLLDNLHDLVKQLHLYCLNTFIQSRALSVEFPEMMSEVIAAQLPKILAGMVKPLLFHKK
Description: C. Progestogen receptor of the uterus of rabbits
Immature rabbits weighing about 1 kg received a cutaneous application of 25 μg of estradiol and the animals were killed 5 days later. The uterus was removed, weighed and homogenized at 0° C. with a polytetrafluoroethylene-glass Potter, in a buffered TS solution [Tris 10. mM, 0.25M of saccharose, HCl-pH of 7.4] with 1 g of tissue per 50 ml of TS. […] The concentration of tied tritiated R (B) was then measured for each incubate by the technique of adsoprtion on carbon-dextran.
(§1) The calculation of the relative affinity of […] (ARL) was identical for all of the above receptor tests. One traced the following two curves: the percentage of tied tritiated hormone B/T as a function of the logarithm of the cold hormone concentration and B/T as a function of the logarithm of the concentration of the cold test product. One determined the line of the equation. [formula]
(§2) The intersection of the I50 line and the curves permits one to determine the concentrations of the cold hormone of the reference (CH) and the cold test compound (CX) which inhibit by 50% the tieing of tritiated hormone with the receptor. The relative affinity of tieing (ARL) of the test product was determined by the equation: [formula]

[2] = target: T2, Estrogen receptor of uterus of mice (Mus musculus, UniProt P19785); experiment: Estrogen receptor binding (displacement of tritiated estradiol); settings: second table; incubation 2 H at 0° C.
T2 construct: the uterus were removed and homogenized at 0° C; from tissue; host or cells: mouse uterus, 105,000 g supernatant (immature females 18 to 21 days old)
T2 sequence (P19785 1-599): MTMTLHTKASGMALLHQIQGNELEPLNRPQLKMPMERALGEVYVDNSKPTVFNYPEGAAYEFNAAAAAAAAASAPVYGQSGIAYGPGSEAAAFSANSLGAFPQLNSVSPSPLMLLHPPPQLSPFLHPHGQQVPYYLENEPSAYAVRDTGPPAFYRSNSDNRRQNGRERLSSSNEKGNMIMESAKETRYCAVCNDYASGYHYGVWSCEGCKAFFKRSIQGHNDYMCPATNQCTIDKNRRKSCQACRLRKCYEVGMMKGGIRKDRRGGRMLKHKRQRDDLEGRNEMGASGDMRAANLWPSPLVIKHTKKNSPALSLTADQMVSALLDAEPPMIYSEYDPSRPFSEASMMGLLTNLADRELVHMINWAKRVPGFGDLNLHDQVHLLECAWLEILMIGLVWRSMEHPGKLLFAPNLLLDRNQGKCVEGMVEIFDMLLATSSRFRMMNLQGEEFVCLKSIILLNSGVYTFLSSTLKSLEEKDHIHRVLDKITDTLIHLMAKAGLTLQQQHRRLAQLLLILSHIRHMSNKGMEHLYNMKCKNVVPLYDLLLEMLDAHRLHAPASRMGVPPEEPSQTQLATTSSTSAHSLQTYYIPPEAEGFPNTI
Description: E. Estrogen receptor of uterus of mice
Immature female mice 18 to 21 days old were killed and the uterus were removed and homogenized at 0° C. with a polytetrafluoroethylene-glass Potter in a buffered TS solution consisting of 10 mM, Tris, 0125M Saccharose, HCl for a pH of 7.4 at a rate of 1 g of tissue per 25 ml of TS. The homogenate was then ultracentrigued at 105,000 g for 90 minutes at 0° C. and aliquoits of the resulting […] were incubated at 0° C. for a time (t) with a constant concentration (T) of tritiated estradiol in the presence of increasing concentrations (0 to 1000×10^-9 M) of either cold estradiol or cold test compound. The concentration of tied tritiated estradiol (B) was measured for each incubate by the technique of adsorption on carbon-dextran.
as §1, §2

SMILES | affinity for progestogen receptors (in words) [1] | relative affinity of tieing (ARL), Progestogen ([1]; incubation 2 H at 0° C.) | relative affinity of tieing (ARL), Progestogen ([1]; incubation 24 H at 0° C.) | relative affinity of tieing (ARL), Estrogen [2]
C#C[C@]1(O)CC[C@H]2[C@@H]3CCC4=CC(=O)CCC4=C3[C@@H](c3ccc(N(C)C)cc3)C[C@@]21C [Example 32, 11β-[4-(N,N-dimethylamino)-phenyl]-17α-ethynyl-Δ^4,9-estradiene-17β-ol-3-one] | very remarkable affinity | 81 | 351 | 0
CC#C[C@]1(O)CC[C@H]2[C@@H]3CCC4=CC(=O)CCC4=C3[C@@H](c3ccc([N+](C)(C)[O-])cc3)C[C@@]21C [Example 35, N-oxide of 11β-[4-(N,N-dimethylamino)-phenyl]-17α-(prop-1-ynyl)-Δ^4,9-estradiene-17β-ol-3-one] | – | 1,1 | 2,5 | 0
C=CC[C@]1(O)CC[C@H]2[C@@H]3CCC4=CC(=O)CCC4=C3[C@@H](c3ccc(N(C)C)cc3)C[C@@]21C [Example 37, 11β-[4-(N,N-dimethylamino)-phenyl]-17α-(prop-2-enyl)-Δ^4,9-estradien-17β-ol-3-one] | very remarkable affinity | 175 | 843 | 0
CN(C)c1ccc([C@H]2C[C@@]3(C)[C@@H](CC[C@@]3(O)C#C[Si](C)(C)C)[C@@H]3CCC4=CC(=O)CCC4=C32)cc1 [Example 44, 11β-[4-(N,N-dimethylamino)-phenyl]-21-trimethylsilyl-19-nor-17α-Δ^4,9-pregnadiene-20-yne-17β-ol-3-one] | – | 15,2 | 38 | 0
